Measured values from ChEMBL document CHEMBL1201862, “PubChem BioAssay data set” (2004).
Blank lines part the entries; values can stand above or below the molecule they belong to. The source made the active and inactive calls.

Columns and labels:
[1] = target: Diphosphomevalonate decarboxylase (Streptococcus pneumoniae serotype 2 (strain D39 / NCTC 7466), UniProt Q9FD53); experiment: diphosphomevalonate decarboxylase inhibitor confirmation – biochemical, cuvette format, coupled NADH fluorescence (AID 1028); type: functional
[2] = target: Sphingosine 1-phosphate receptor 2 (Homo sapiens, UniProt O95136); experiment: Dose Response Cell Based Assay for Antagonists of the S1P2 Receptor. [Related pubchem assays: 856, 736 ]; type: functional
[3] = target: T1, Calpain-2 catalytic subunit (Sus scrofa, UniProt P43367); experiment: m-calpain protease blockers, concentration series – biochemical, fluorogenic peptide substrate, dose response (AID 1420); type: functional
T1 sequence (P43367 whole entry): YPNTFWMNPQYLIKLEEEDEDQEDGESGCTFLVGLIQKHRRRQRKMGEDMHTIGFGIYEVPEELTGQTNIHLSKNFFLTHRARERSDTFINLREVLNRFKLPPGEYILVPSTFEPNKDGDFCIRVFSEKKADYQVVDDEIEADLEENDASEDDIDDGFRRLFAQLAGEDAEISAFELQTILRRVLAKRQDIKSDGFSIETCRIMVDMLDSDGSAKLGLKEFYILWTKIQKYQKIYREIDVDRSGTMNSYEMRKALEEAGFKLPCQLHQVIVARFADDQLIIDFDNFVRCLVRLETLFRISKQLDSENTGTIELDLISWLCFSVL

[4] = Luminescence-based cell-based high throughput dose response assay to identify activators of the DAF-12 from the parasite S. stercoralis (ssDAF-12).; type: functional
[5] = target: T2, Oxysterols receptor LXR-beta (Homo sapiens, UniProt P55055); experiment: LXR agonists, Gal4 luciferase reporter, dose response, counter-screen for ssDAF-12 agonist project, cell-based, luminescence, HEK293, S. stercoralis campaign (AID 720737); type: functional; conditions: read-out: IC50 (the source's name)
T2 sequence (P55055 whole entry): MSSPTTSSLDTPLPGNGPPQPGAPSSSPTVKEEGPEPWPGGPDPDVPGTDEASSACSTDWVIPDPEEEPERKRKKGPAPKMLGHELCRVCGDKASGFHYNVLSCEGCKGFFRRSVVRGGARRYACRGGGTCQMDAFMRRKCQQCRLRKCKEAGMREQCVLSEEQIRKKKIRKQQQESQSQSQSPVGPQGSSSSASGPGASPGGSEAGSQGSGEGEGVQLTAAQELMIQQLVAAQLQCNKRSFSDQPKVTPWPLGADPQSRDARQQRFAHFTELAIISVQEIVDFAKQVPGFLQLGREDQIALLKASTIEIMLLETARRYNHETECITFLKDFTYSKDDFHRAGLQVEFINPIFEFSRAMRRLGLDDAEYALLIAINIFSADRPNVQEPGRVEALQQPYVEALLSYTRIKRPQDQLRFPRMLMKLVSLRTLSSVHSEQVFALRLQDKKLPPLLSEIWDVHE

[6] = Late-stage results from the probe development effort to identify antagonists of arginine vasopressin receptor 1a (AVPR1a): fluorescence-based cell-based dose response AVPR1a inhibition assay.; type: functional
[7] = Late-stage results from the probe development effort to identify antagonists of arginine vasopressin receptor 1a (AVPR1a): fluorescence-based cell-based dose response OXTR inhibition counterscreen assay.; type: functional
Vasopressin V2 receptor = Vasopressin V2 receptor (Homo sapiens, UniProt P30518); experiment: Late-stage results from the probe development effort to identify antagonists of arginine vasopressin receptor 1a (AVPR1a): fluorescence-based cell-based dose response AVPR2 inhibition counterscreen assay.; type: functional
Vasopressin V1b receptor = Vasopressin V1b receptor (Homo sapiens, UniProt P47901); experiment: Late-stage results from the probe development effort to identify antagonists of arginine vasopressin receptor 1a (AVPR1a): fluorescence-based cell-based dose response AVPR1b inhibition counterscreen assay.; type: functional
Cytochrome P450 3A4 = Cytochrome P450 3A4 (Homo sapiens, UniProt P08684);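 note: CYP3A4 tested as one member of a cytochrome P450 panel screen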
[8] = target: Peroxisome proliferator-activated receptor gamma/Nuclear receptor corepressor 2 (Homo sapiens, UniProt P37231+Q9Y618); experiment: Counterscreen for NR2E3 inverse agonists: TR-FRET-based biochemical high throughput dose response assay to identify inverse agonists of the interaction between peroxisome proliferator-activated receptor gamma (PPARg) and nuclear receptor co-repressor 2 (NCOR2).; type: functional
Cytochrome P450 1A2 = target: T3, Cytochrome P450 1A2 (Homo sapiens, UniProt P05177);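 note: PubChem cytochrome P450 panel assay, CYP1A2 panel member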
T3 sequence (P05177 whole entry): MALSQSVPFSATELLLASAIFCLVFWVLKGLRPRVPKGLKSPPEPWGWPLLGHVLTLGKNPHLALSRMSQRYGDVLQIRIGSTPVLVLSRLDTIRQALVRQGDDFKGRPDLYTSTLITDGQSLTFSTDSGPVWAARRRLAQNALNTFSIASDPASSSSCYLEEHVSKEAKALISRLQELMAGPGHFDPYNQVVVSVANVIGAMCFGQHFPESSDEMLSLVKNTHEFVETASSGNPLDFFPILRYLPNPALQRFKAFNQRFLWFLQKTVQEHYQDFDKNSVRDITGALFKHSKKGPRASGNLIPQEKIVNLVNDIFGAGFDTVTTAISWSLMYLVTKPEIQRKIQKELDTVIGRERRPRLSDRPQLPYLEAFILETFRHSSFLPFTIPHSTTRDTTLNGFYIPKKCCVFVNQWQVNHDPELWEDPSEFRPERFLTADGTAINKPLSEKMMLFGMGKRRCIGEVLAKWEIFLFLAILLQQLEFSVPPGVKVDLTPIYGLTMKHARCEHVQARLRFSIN

[9] = target: Photoreceptor-specific nuclear receptor (Homo sapiens, UniProt Q9Y5X4); experiment: ligands suppressing NR2E3 nuclear receptor activity – biochemical, TR-FRET, dose response (AID 463256); type: functional
[10] = SNU-C1 cell viability reduction, dose response, CellTiter-Glo luminescence (AID 1117323); type: functional, cell-based
[11] = cytotoxicity toward HT-29 cells – cell-based, CellTiter-Glo luminescence, IC50, dose response (AID 1117330); type: functional
[12] = cytotoxicity toward HCT116 cells – cell-based, CellTiter-Glo luminescence, IC50, dose response (AID 1117332); type: functional; conditions: HCT-116
[13] = cytotoxicity toward Colo320 cells – cell-based, CellTiter-Glo luminescence, IC50, dose response (AID 1117334); type: functional; conditions: COLO 320
[14] = Reduced DLD-1 viability, concentration-response, CellTiter-Glo luminescence (AID 1117352); type: functional
[15] = HCT116 cell viability decrease, GSK3B pretreatment – CellTiter-Glo, IC50, dose response (AID 1117339); type: functional; conditions: HCT-116
[16] = CellTiter-Glo luminescence survival assay, SW480 colon tumor line, concentration-response curve, half-maximal inhibitory concentration (AID 1117338); type: functional
[17] = RKO cell viability reduction, dose response, CellTiter-Glo luminescence (AID 1117322); type: functional
[18] = target: G-protein coupled receptor 183 (Homo sapiens, UniProt P32249); experiment: SAR confirmation of small molecule antagonists of the EBI2 receptor via a luminescent beta-arrestin assa.; type: functional
Sequence of G-protein coupled receptor 183 (P32249 whole entry): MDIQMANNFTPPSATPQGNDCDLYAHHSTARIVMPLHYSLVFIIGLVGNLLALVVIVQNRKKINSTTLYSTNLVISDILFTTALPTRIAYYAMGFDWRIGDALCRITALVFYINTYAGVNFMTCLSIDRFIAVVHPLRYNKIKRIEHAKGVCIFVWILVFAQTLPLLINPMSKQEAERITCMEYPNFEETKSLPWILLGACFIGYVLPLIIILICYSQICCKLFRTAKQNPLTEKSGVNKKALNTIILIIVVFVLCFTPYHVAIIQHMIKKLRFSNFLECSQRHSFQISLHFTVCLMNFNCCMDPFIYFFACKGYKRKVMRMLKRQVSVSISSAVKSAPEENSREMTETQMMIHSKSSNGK

Sequence of Sphingosine 1-phosphate receptor 2 (O95136 whole entry): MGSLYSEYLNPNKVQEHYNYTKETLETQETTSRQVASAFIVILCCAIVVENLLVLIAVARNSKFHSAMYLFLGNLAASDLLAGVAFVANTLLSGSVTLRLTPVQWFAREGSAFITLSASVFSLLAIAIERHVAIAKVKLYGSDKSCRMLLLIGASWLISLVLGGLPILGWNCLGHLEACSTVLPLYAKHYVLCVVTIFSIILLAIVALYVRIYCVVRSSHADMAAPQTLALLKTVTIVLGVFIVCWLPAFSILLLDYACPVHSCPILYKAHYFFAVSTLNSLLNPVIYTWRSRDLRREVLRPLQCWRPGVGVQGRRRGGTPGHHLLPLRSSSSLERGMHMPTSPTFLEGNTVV
Sequence of Cytochrome P450 3A4 (P08684 whole entry): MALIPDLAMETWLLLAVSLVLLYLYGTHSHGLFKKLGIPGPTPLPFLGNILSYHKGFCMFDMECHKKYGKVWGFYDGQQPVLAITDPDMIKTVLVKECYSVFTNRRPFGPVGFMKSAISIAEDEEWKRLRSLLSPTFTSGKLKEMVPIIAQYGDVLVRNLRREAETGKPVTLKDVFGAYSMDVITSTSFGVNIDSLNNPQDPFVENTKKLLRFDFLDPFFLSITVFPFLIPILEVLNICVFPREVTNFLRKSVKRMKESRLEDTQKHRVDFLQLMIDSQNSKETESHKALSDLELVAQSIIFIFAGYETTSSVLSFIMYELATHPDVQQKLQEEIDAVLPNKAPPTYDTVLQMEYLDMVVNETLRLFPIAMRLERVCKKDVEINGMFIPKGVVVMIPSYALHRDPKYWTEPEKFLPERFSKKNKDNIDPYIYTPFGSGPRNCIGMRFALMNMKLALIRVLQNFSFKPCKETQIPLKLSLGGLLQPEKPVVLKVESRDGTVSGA
Sequence of Vasopressin V2 receptor (P30518 whole entry): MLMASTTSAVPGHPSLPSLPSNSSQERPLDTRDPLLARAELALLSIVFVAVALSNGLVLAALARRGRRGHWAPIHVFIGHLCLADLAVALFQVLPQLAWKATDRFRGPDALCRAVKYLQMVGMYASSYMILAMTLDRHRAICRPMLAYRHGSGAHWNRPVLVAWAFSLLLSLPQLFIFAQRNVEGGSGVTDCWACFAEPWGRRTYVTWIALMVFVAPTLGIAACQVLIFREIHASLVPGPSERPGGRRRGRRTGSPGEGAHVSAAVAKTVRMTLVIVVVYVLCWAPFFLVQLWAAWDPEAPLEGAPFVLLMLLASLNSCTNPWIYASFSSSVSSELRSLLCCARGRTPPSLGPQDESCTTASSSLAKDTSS
Sequence of Vasopressin V1b receptor (P47901 whole entry): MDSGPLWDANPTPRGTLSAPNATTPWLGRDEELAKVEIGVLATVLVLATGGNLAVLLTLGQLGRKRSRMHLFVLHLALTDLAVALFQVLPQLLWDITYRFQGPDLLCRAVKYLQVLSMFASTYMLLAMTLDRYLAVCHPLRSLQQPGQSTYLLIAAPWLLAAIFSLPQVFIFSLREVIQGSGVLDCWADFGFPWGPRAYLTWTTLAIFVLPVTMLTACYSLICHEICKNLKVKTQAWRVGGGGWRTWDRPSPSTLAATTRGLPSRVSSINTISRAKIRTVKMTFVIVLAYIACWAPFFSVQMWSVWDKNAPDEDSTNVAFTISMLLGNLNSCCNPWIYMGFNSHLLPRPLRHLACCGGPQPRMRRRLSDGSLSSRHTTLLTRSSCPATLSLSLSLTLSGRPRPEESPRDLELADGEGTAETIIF
Sequence of Photoreceptor-specific nuclear receptor (Q9Y5X4 whole entry): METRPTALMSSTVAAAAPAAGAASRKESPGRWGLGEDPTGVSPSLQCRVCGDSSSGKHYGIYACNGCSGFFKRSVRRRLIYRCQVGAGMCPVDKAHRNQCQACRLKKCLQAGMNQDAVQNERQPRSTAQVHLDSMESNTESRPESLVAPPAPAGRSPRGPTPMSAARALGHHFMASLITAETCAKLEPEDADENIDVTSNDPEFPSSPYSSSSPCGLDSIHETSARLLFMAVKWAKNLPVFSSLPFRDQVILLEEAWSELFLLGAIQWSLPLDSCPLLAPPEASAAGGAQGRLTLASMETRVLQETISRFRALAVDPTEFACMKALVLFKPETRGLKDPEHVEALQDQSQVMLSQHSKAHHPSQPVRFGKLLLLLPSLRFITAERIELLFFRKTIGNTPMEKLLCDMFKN
Sequence of Diphosphomevalonate decarboxylase (Q9FD53 whole entry): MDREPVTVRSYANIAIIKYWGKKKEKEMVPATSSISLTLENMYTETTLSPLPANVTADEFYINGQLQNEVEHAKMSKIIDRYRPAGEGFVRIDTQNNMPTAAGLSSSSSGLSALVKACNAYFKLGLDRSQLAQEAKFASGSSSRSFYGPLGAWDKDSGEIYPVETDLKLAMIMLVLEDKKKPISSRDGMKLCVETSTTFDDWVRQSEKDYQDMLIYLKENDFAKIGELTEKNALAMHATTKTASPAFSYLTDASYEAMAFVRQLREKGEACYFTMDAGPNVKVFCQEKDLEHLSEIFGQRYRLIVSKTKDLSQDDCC

Compound: CCN(CC)C(=O)c1ccc(-n2sc3ccccc3c2=O)cc1
IC50 [1]: 19.2 µM (active)

IC50 [2]: > 30 µM (not active) | IC50 [3]: 14.3 µM (not active)
Compound: COC(=O)c1sc2cc(C(F)(F)F)cnc2c1-c1cccnc1

Compound: Oc1ccc(N=Nc2ccccc2)o1
IC50 [4]: > 67.6 µM (inactive) | EC50 [5]: > 67.6 µM (inactive)

Compound: O=C(C1CCN(c2ncccc2F)CC1)N(CC1CC1)c1ccc(Cl)cc1
IC50 [6]: 0.015 µM (active) | IC50 [7]: 3.6 µM (active) | IC50 (Vasopressin V2 receptor): 19 µM (inactive) | IC50 (Vasopressin V1b receptor): 11.5 µM (inactive)

AC50 (Cytochrome P450 3A4): 1 µM (inconclusive) | IC50 [8]: 7.42 µM (active) | AC50 (Cytochrome P450 1A2): 15.8 µM (inconclusive) | IC50 [9]: 5.92 µM (active)
Compound: COc1ccc(N2C(=O)c3ccccc3NC2c2ccc(OC)c(CSc3ccccn3)c2)cc1 (configuration not stated)

Compound: CC(CC=O)CCCC(C)(C)O (configuration not stated)
IC50 [10]: > 20 µM (inactive) | IC50 [11]: > 20 µM (inactive) | IC50 [12]: > 20 µM (inactive) | IC50 [13]: > 20 µM (inactive) | IC50 [14]: > 20 µM (inactive) | IC50 [15]: > 20 µM (inactive) | IC50 [16]: > 20 µM (inactive) | IC50 [17]: > 20 µM (inactive)

IC50 [18]: 0.0143 µM (active)
Compound: CCOc1ccc(/C=C/C(=O)N2CCN(S(=O)(=O)c3ccc(Br)cc3)CC2)cc1
